{
  "source": "ChEMBL document CHEMBL3132744",
  "about": "“Structureactivity relationship studies of miniproteins targeting the androgen receptorcoactivator interaction” (Medchemcomm, 2013)",
  "note": "Peptide text beside a SMILES is read from it.",
  "data": [
    {"target": "T1, Androgen receptor (Homo sapiens, UniProt P10275)", "T1 sequence (P10275 whole entry)": "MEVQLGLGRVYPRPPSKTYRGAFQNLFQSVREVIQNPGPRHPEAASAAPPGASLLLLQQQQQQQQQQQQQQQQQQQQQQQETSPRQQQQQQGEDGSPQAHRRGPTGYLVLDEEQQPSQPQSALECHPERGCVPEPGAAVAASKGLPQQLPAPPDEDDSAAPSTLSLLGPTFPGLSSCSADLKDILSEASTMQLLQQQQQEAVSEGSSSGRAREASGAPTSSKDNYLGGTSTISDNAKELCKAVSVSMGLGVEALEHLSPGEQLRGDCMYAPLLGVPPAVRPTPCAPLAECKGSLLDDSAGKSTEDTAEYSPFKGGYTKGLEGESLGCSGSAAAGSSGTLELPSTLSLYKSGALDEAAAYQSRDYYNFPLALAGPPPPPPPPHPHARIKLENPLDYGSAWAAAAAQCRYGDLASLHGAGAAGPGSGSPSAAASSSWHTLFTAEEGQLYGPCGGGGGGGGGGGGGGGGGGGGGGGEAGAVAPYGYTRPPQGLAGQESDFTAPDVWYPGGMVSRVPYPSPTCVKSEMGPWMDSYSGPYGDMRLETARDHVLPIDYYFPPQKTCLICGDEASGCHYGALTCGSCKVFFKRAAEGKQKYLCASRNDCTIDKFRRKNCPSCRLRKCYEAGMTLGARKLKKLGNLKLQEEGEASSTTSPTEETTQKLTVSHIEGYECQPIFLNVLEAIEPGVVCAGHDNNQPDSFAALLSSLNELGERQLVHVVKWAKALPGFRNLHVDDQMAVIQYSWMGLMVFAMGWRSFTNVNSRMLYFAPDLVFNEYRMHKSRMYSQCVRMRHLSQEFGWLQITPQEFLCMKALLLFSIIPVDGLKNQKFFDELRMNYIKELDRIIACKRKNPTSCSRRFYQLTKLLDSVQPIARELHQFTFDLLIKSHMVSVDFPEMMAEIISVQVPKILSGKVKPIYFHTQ", "assay": "Displacement of fluorescein-CSSRFESLFAGEKESR from human androgen receptor-LBD after 1 hr by fluorescence polarization assay", "units": {"Ki": "µM"}, "values": [
      {"smiles": "CC[C@H](C)[C@H](NC(=O)[C@H](CS)NC(=O)[C@H](Cc1ccccc1)NC(=O)[C@H](CCSC)NC(=O)[C@H](CCC(=O)O)NC(=O)[C@H](CS)NC(=O)[C@H](Cc1ccccc1)NC(=O)[C@H](CCCNC(=N)N)NC(=O)[C@@H](N)CC(N)=O)C(=O)N[C@@H](CCC(N)=O)C(=O)NCC(=O)N[C@H](C(=O)NCC(=O)N[C@@H](CC(=O)O)C(=O)N[C@H](C(=O)N[C@@H](CCCCN)C(=O)N[C@@H](C)C(=O)N[C@@H](CS)C(=O)N[C@@H](CCC(=O)O)C(=O)N[C@@H](Cc1c[nH]c2ccccc12)C(=O)N[C@@H](C)C(=O)N[C@@H](CS)C(=O)N[C@@H](CCC(N)=O)C(=O)O)C(C)C)[C@@H](C)O", "note": "(H-NRFCEMFCIQGTGDVKACEWACQ-OH)", "Ki": 4.1},
      {"smiles": "CC(C)C[C@H](NC(=O)[C@H](CS)NC(=O)[C@@H](NC(=O)[C@H](Cc1ccccc1)NC(=O)[C@H](Cc1ccc(O)cc1)NC(=O)[C@H](CS)NC(=O)[C@H](C)N)C(C)C)C(=O)N[C@@H](Cc1ccccc1)C(=O)N[C@@H](CCC(=O)O)C(=O)NCC(=O)N[C@@H](CC(N)=O)C(=O)N[C@@H](CC(=O)O)C(=O)N[C@@H](CCC(=O)O)C(=O)N[C@@H](CCC(=O)O)C(=O)N[C@H](C(=O)N[C@@H](CS)C(=O)N[C@@H](CCCCN)C(=O)N[C@@H](CCC(=O)O)C(=O)N[C@@H](Cc1c[nH]c2ccccc12)C(=O)N[C@@H](CS)C(=O)O)[C@@H](C)O", "note": "(H-ACYFVCLFEGNDEETCKEWC-OH)", "Ki": 3},
      {"smiles": "CC(C)C[C@H](NC(=O)[C@H](CS)NC(=O)[C@H](CC(N)=O)NC(=O)[C@H](Cc1ccccc1)NC(=O)[C@H](Cc1ccc(O)cc1)NC(=O)[C@H](CS)NC(=O)[C@H](C)N)C(=O)N[C@@H](Cc1ccccc1)C(=O)N[C@@H](CCC(=O)O)C(=O)NCC(=O)N[C@@H](CCC(=O)O)C(=O)N[C@@H](CC(=O)O)C(=O)N[C@@H](CCC(=O)O)C(=O)N[C@@H](CCC(=O)O)C(=O)N[C@H](C(=O)N[C@@H](CS)C(=O)N[C@@H](CCCCN)C(=O)N[C@@H](CCC(=O)O)C(=O)N[C@@H](Cc1c[nH]c2ccccc12)C(=O)N[C@@H](CS)C(=O)O)[C@@H](C)O", "note": "(H-ACYFNCLFEGEDEETCKEWC-OH)", "Ki": 0.2},
      {"smiles": "CC(C)C[C@H](NC(=O)[C@H](CS)NC(=O)[C@H](CC(N)=O)NC(=O)[C@H](Cc1ccccc1)NC(=O)[C@H](Cc1ccc(O)cc1)NC(=O)[C@H](CS)NC(=O)[C@H](C)N)C(=O)N[C@@H](Cc1ccccc1)C(=O)N[C@@H](CCC(=O)O)C(=O)NCC(=O)N[C@@H](CC(N)=O)C(=O)N[C@@H](CC(=O)O)C(=O)N[C@@H](CCC(=O)O)C(=O)N[C@@H](CCC(=O)O)C(=O)N[C@H](C(=O)N[C@@H](CS)C(=O)N[C@@H](CCCCN)C(=O)N[C@@H](CCC(=O)O)C(=O)N[C@@H](Cc1c[nH]c2ccccc12)C(=O)N[C@@H](CS)C(=O)O)[C@@H](C)O", "note": "(H-ACYFNCLFEGNDEETCKEWC-OH)", "Ki": 1.7},
      {"smiles": "CC(C)C[C@H](NC(=O)[C@H](CCC(=O)O)NC(=O)[C@H](CS)NC(=O)[C@H](Cc1ccccc1)NC(=O)[C@H](CCCNC(=N)N)NC(=O)[C@@H](N)CC(N)=O)C(=O)N[C@@H](Cc1ccccc1)C(=O)N[C@@H](CS)C(=O)N[C@@H](Cc1ccccc1)C(=O)N[C@@H](CCC(N)=O)C(=O)NCC(=O)N[C@H](C(=O)NCC(=O)N[C@@H](CC(=O)O)C(=O)N[C@H](C(=O)N[C@@H](CCCCN)C(=O)N[C@@H](C)C(=O)N[C@@H](CS)C(=O)N[C@@H](CCC(=O)O)C(=O)N[C@@H](Cc1c[nH]c2ccccc12)C(=O)N[C@@H](C)C(=O)N[C@@H](CS)C(=O)N[C@@H](CCC(N)=O)C(=O)O)C(C)C)[C@@H](C)O", "note": "(H-NRFCELFCFQGTGDVKACEWACQ-OH)", "Ki": 3.6},
      {"smiles": "CC(C)C[C@H](NC(=O)[C@H](CC(C)C)NC(=O)[C@H](CS)NC(=O)[C@H](CC(N)=O)NC(=O)[C@H](CC(C)C)NC(=O)[C@H](Cc1ccc(O)cc1)NC(=O)[C@H](CS)NC(=O)[C@H](C)N)C(=O)N[C@@H](CCC(=O)O)C(=O)NCC(=O)N[C@@H](CC(N)=O)C(=O)N[C@@H](CC(=O)O)C(=O)N[C@@H](CCC(=O)O)C(=O)N[C@@H](CCC(=O)O)C(=O)N[C@H](C(=O)N[C@@H](CS)C(=O)N[C@@H](CCCCN)C(=O)N[C@@H](CCC(=O)O)C(=O)N[C@@H](Cc1c[nH]c2ccccc12)C(=O)N[C@@H](CS)C(=O)O)[C@@H](C)O", "note": "(H-ACYLNCLLEGNDEETCKEWC-OH)", "Ki": 1.4},
      {"smiles": "CC[C@H](C)[C@H](NC(=O)[C@H](CS)NC(=O)[C@H](Cc1ccccc1)NC(=O)[C@H](CC(C)C)NC(=O)[C@H](CCC(=O)O)NC(=O)[C@H](CS)NC(=O)[C@H](Cc1ccccc1)NC(=O)[C@H](CC(C)C)NC(=O)[C@@H](N)CC(N)=O)C(=O)N[C@@H](CCC(N)=O)C(=O)NCC(=O)N[C@H](C(=O)NCC(=O)N[C@@H](CC(=O)O)C(=O)N[C@H](C(=O)N[C@@H](CCCCN)C(=O)N[C@@H](C)C(=O)N[C@@H](CS)C(=O)N[C@@H](CCC(=O)O)C(=O)N[C@@H](Cc1c[nH]c2ccccc12)C(=O)N[C@@H](C)C(=O)N[C@@H](CS)C(=O)N[C@@H](CCC(N)=O)C(=O)O)C(C)C)[C@@H](C)O", "note": "(H-NLFCELFCIQGTGDVKACEWACQ-OH)", "Ki": 10},
      {"smiles": "CC[C@H](C)[C@H](NC(=O)[C@H](CS)NC(=O)[C@H](Cc1ccccc1)NC(=O)[C@H](CC(C)C)NC(=O)[C@H](CCC(=O)O)NC(=O)[C@H](CS)NC(=O)[C@H](Cc1ccccc1)NC(=O)[C@H](CCCNC(=N)N)NC(=O)[C@@H](N)CCCCN)C(=O)N[C@@H](CCC(N)=O)C(=O)NCC(=O)N[C@H](C(=O)NCC(=O)N[C@@H](CC(=O)O)C(=O)N[C@H](C(=O)N[C@@H](CCCCN)C(=O)N[C@@H](C)C(=O)N[C@@H](CS)C(=O)N[C@@H](CCC(=O)O)C(=O)N[C@@H](Cc1c[nH]c2ccccc12)C(=O)N[C@@H](C)C(=O)N[C@@H](CS)C(=O)N[C@@H](CCC(N)=O)C(=O)O)C(C)C)[C@@H](C)O", "note": "(H-KRFCELFCIQGTGDVKACEWACQ-OH)", "Ki": 1.9},
      {"smiles": "CC(C)C[C@H](NC(=O)[C@H](CS)NC(=O)[C@H](Cc1cnc[nH]1)NC(=O)[C@H](Cc1ccccc1)NC(=O)[C@H](Cc1ccc(O)cc1)NC(=O)[C@H](CS)NC(=O)[C@H](C)N)C(=O)N[C@@H](Cc1ccccc1)C(=O)N[C@@H](CCC(=O)O)C(=O)NCC(=O)N[C@@H](CC(N)=O)C(=O)N[C@@H](CC(=O)O)C(=O)N[C@@H](CCC(=O)O)C(=O)N[C@@H](CCC(=O)O)C(=O)N[C@H](C(=O)N[C@@H](CS)C(=O)N[C@@H](CCCCN)C(=O)N[C@@H](CCC(=O)O)C(=O)N[C@@H](Cc1c[nH]c2ccccc12)C(=O)N[C@@H](CS)C(=O)O)[C@@H](C)O", "note": "(H-ACYFHCLFEGNDEETCKEWC-OH)", "Ki": 7},
      {"smiles": "CC(C)C[C@H](NC(=O)[C@H](CS)NC(=O)[C@H](C)N)C(=O)N[C@@H](Cc1ccccc1)C(=O)N[C@@H](CC(N)=O)C(=O)N[C@@H](CS)C(=O)N[C@@H](CC(C)C)C(=O)N[C@@H](Cc1ccccc1)C(=O)N[C@@H](CCC(=O)O)C(=O)NCC(=O)N[C@@H](CC(N)=O)C(=O)N[C@@H](CC(=O)O)C(=O)N[C@@H](CCC(=O)O)C(=O)N[C@@H](CCC(=O)O)C(=O)N[C@H](C(=O)N[C@@H](CS)C(=O)N[C@@H](CCCCN)C(=O)N[C@@H](CCC(=O)O)C(=O)N[C@@H](Cc1c[nH]c2ccccc12)C(=O)N[C@@H](CS)C(=O)O)[C@@H](C)O", "note": "(H-ACLFNCLFEGNDEETCKEWC-OH)", "Ki": 3},
      {"smiles": "CC(C)C[C@H](NC(=O)[C@H](CS)NC(=O)[C@H](CC(N)=O)NC(=O)[C@H](Cc1ccccc1)NC(=O)[C@H](CCCNC(=N)N)NC(=O)[C@H](CS)NC(=O)[C@H](C)N)C(=O)N[C@@H](Cc1ccccc1)C(=O)N[C@@H](CCC(=O)O)C(=O)NCC(=O)N[C@@H](CC(N)=O)C(=O)N[C@@H](CC(=O)O)C(=O)N[C@@H](CCC(=O)O)C(=O)N[C@@H](CCC(=O)O)C(=O)N[C@H](C(=O)N[C@@H](CS)C(=O)N[C@@H](CCCCN)C(=O)N[C@@H](CCC(=O)O)C(=O)N[C@@H](Cc1c[nH]c2ccccc12)C(=O)N[C@@H](CS)C(=O)O)[C@@H](C)O", "note": "(H-ACRFNCLFEGNDEETCKEWC-OH)", "Ki": 12},
      {"smiles": "CC[C@H](C)[C@H](NC(=O)[C@H](CS)NC(=O)[C@H](Cc1ccccc1)NC(=O)[C@H](CC(C)C)NC(=O)[C@H](CCCCN)NC(=O)[C@H](CS)NC(=O)[C@H](Cc1ccccc1)NC(=O)[C@H](CCCNC(=N)N)NC(=O)[C@@H](N)CC(N)=O)C(=O)N[C@@H](CCC(N)=O)C(=O)NCC(=O)N[C@H](C(=O)NCC(=O)N[C@@H](CC(=O)O)C(=O)N[C@H](C(=O)N[C@@H](CCCCN)C(=O)N[C@@H](C)C(=O)N[C@@H](CS)C(=O)N[C@@H](CCC(=O)O)C(=O)N[C@@H](Cc1c[nH]c2ccccc12)C(=O)N[C@@H](C)C(=O)N[C@@H](CS)C(=O)N[C@@H](CCC(N)=O)C(=O)O)C(C)C)[C@@H](C)O", "note": "(H-NRFCKLFCIQGTGDVKACEWACQ-OH)", "Ki": 2.7}
    ]}
  ]
}
